Here are results for one compound from patent US20060241168A1, “Antidepressant” (priority 2002, published 2006).

For this assay, the system named is Akt. The assay can be described thus: Akt phosphorylation in rat hippocampus glia mixed culturing system (immunoprecipitation, Western blotting). It is filed as cell-based. As to conditions: rat hippocampus mixed culture; added at 300 nM or 100 nM; after one day and three days. As for the experimental part: The hippocampus was removed from a 3 day-old rat and the cells were dispersed in a nerve dispersing solution. After the number of the cells was counted, the cells were suspended in a DMEM/F-12 medium containing 10% FCS (Embryo Max) and was then seeded on a 6-well plate coated with type I collagen at a density of 3×10^5 cells/cm^2. After cultured for 4 days, the medium was replaced with a N2 supplement-containing medium. Compound (I) (Compound 17a was used; hereinafter referred to Compound A) was added to a well at 300 nM or 100 nM, and IGF-1 was added to a well at 100 ng/mL. One day or three days after the addition, the cells were collected using Lysis Buffer containing protease inhibitor cocktail. Each cell suspension was centrifuged at 20000 rpm for 30 minutes and the supernatant was collected. An anti-5G3 Akt antibody was added to the supernatant to immunoprecipitate intracellular Akt. The resulting precipitate was subjected to SDS-PAGE using a 5-20% polyacrylamide gel and then to Western blotting. An anti-Phospho Akt antibody as a primary antibody and an HRP-linked anti-Rabbit antibody as a secondary antibody were used to detect the bands of phosphorylated Akt (Ser473 and Thr308). In order to detect the total Akt, the PVDF membrane was immersed in a reprobe buffer and permeated at 55° C. for 20 minutes to peel the antibodies. […]
A general note: In western blotting, separated proteins are transferred to a membrane and probed.

On to `COc1cc2c(cc1OC)CN(c1c(C)c(C)c3c(c1C)[C@@H](c1ccc(C)cc1)C(C)(C)O3)C2` [Compound A], for which the “phosphorylation of Akt at Ser473” value is recorded as “promoted phosphorylation” and the “phosphorylation of Akt at Thr308” value is given as “promoted phosphorylation”.
